{
  "source": "patent US6696267B2",
  "about": "“Methods and compositions for screening Icrac modulators” (Warner-Lambert Company, priority 2000, dated 2004)",
  "key": {"[1]": {"tested_on": "NFAT-driven β-lactamase synthesis (Icrac activation) in NFAT-β-lactamase Jurkat cells", "experiment": "NFAT-β-lactamase gene-reporter assay in Jurkat cells (Jk-NFAT-βlac), CCF2-AM ratio 460/535", "assay_type": "cell-based", "conditions": "for Effect on β-lactamase synthesis at 10 μM / Effect on TG-driven β-lactamase synthesis / NFAT activation: Jurkat cells; for Effect on β-lactamase synthesis at 10 μM: TG 1 μM (FIG. 4); for Effect on TG-driven β-lactamase synthesis / NFAT activation: with TG 1 μM for 4 h (FIG. 4)", "protocol": "(§1) Jurkat cell lines (Jk-NFAT-βlac) stably transfected with plasmid containing 3×NFAT-β-lactamase reporter gene (for NFAT promoter sequence see (19)), and plasmid containing CMV-β-lactamase (Jk-CMV-βlac), where CMV is a constitutively active promoter as well as HEK cells (HEK-CRE-βlac) with 3×CRE-β-lactamase (the CRE promoter contains CRE box sequence of CGTCA (20)) were obtained from Aurora Biosciences Corp (San Diego, Calif.).\nJurkat cells were grown in RPMI 1640 medium supplemented with 10% foetal bovine serum, 2 mM L-glutamine, 1 mM NEAA, 1 mM Na pyruvate, 25 mM HEPES, pH 7.4, gentamicin 100 μg/ml. HEK-293 cells were grown in MEM glutamax, supplemented with 10% FBS, gentamycin 100 μg/ml, HEPES 20 mM. Medium for stable cell propagation contained 250 μg/ml Zeocin (Jk-NFAT-βlac) or 800 μg/ml Geneticin (Jk-CMV-βlac, HEK-CRE-βlac). […] Cells were then loaded, for 1 h in the dark at room temperature, with 12 μM CCF2-AM (13). Fluorescence was monitored with a Fluostar (BMG, Germany) fluorimeter. Excitation was at 405 nm, and emission record at 460 nm and 535 nm. The ratio (460 nm/535 nm) of fluorescence unit (F.U.) was estimated after correction for background (medium without cells). HEK-CRE-βlac were stimulated using Forskolin 10 μM in the medium mentioned above (4×10^4 cells/well). All reagents were added with the stimulator agent (e.g. TG or forskolin), unless noticed."}, "[2]": {"tested_on": "constitutive β-lactamase (CMV-driven) in Jurkat cells", "experiment": "Constitutive CMV-β-lactamase Jurkat cell assay (Jk-CMV-βlac)", "assay_type": "cell-based", "conditions": "Jk-CMV-βlac cells (FIG. 6, DMSO 3%)", "protocol": "as §1\nJurkat cells were grown in RPMI 1640 medium supplemented with 10% foetal bovine serum, 2 mM L-glutamine, 1 mM NEAA, 1 mM Na pyruvate, 25 mM HEPES, pH 7.4, gentamicin 100 μg/ml. HEK-293 cells were grown in MEM glutamax, supplemented with 10% FBS, gentamycin 100 μg/ml, HEPES 20 mM. Medium for stable cell propagation contained 250 μg/ml Zeocin (Jk-NFAT-βlac) or 800 μg/ml Geneticin (Jk-CMV-βlac, HEK-CRE-βlac). In a 96-well plate, 1 μM Thapsigargin (TG) was used to stimulate NFAT Jurkat cells (10^5 per well), for 4 h at 37° C., 5% CO2, in Dulbecco's Modified Essential Medium ([Ca^++] 1.8 mM) 10% FBS, gentamycin 100 μg/ml. Cells were then loaded, for 1 h in the dark at room temperature, with 12 μM CCF2-AM (13). Fluorescence was monitored with a Fluostar (BMG, Germany) fluorimeter. Excitation was at 405 nm, and emission record at 460 nm and 535 nm. The ratio (460 nm/535 nm) of fluorescence unit (F.U.) was estimated after correction for background (medium without cells). […]"}, "Icrac channel": {"tested_on": "Icrac channel", "experiment": "Optical measurement of intracellular [Ca++] with Fura-2", "assay_type": "cell-based", "conditions": "Fura-2 as probe", "protocol": "Loading with 2 μM fura-2-AM was performed with a 3×10^6 cells suspension for 30 min at 37° C., in Hanks buffer saline solution (HBSS). Cells were washed and resuspended twice to minimize extracellular dye. Fura-2 fluorescence measurements were carried out in a water-jacketed cuvette (room temperature) with continuous stirring, containing 1 ml of the cells suspension. Fluorescence was monitored with a Shimadzu spectrofluorophotometer by continuously (1 sec intervals) collecting excitation signals at 340 nm and 380 nm and emission signal at 510 nm. Maximal and minimal fluorescence were obtained by adding ionomycin 25 μM and EGTA (20 mM) respectively and sequentially at the end of the experiment. The ratio of excitation signals at 340 nm and 380 nm was used to calculate [Ca^++] as previously described (21) assuming a Kd of 155 nM."}, "[3]": {"tested_on": "NFAT-β-lactamase Jurkat cells", "experiment": "CCF2-AM loading capacity of NFAT-β-lactamase Jurkat cells (F.U. at 535 nm)", "conditions": "for Toxic effects (weak loading): 50 μM, data not shown"}, "[4]": {"tested_on": "NFAT-driven β-lactamase synthesis in p815 mastocyte cells", "experiment": "NFAT-β-lactamase gene-reporter assay in p815 mastocytes (p815-NFAT-βlac)", "assay_type": "cell-based", "conditions": "mastocytes (not shown)", "protocol": "The mastocyte monoclonal cell line (p815-NFAT-βlac) stably transfected with plasmid containing 3×NFAT-β-lactamase were obtained as follow. Cells (1.10^7/ml) were electroporated in a 0.4 cm gap cuvette using a BioRad Gene Pulser II at 960 μF and 300V, using 20 μg of pcDNAIII 3×NFAT-β-lactamase Zeomycin expression vector (from Aurora Biosciences Corp; San Diego, Calif.) in DMEM medium. After 48 h, electroporated p815 cells were selected for 2 weeks using 250 μg/ml Zeocin (InVitrogen, Calif.). A pool of TG responding cells were first sorted, using FACS Vantage (Becton Dickinson, Calif.), and a week after, 200 cells were monosorted (one cell per well) from this pool, 15 clones grown up, and were tested as follow.\nJurkat cells were grown in RPMI 1640 medium supplemented with 10% foetal bovine serum, 2 mM L-glutamine, 1 mM NEAA, 1 mM Na pyruvate, 25 mM HEPES, pH 7.4, gentamicin 100 μg/ml. HEK-293 cells were grown in MEM glutamax, supplemented with 10% FBS, gentamycin 100 μg/ml, HEPES 20 mM. Medium for stable cell propagation contained 250 μg/ml Zeocin (Jk-NFAT-βlac) or 800 μg/ml Geneticin (Jk-CMV-βlac, HEK-CRE-βlac). […] Fluorescence was monitored with a Fluostar (BMG, Germany) fluorimeter. […] The ratio (460 nm/535 nm) of fluorescence unit (F.U.) was estimated after correction for background (medium without cells). […]"}, "β-lactamase": {"target": "β-lactamase", "conditions": "β-lactamase inhibitor; cited from earlier work"}},
  "note": "Where two headings read alike, the source gives them in different places.",
  "data": [
    {"molecule": "C[C@@H]1C[C@@H]([C@H](O)CC2CC(=O)NC(=O)C2)C(=O)[C@@H](C)C1", "note": "[CHX, cycloheximide]", "values": [
      {"measurement": "Effect on β-lactamase synthesis when added after TG stimulation", "setting": "[1]; added as long as 4 hrs after TG stimulation", "result": "inhibitory effect"}
    ]},
    {"molecule": "CC(=O)C1=C(O)[C@@H]2[C@H]3c4c[nH]c5cccc(c45)C[C@H]3C(C)(C)N2C1=O", "note": "[CPA, cyclopiazonic acid]", "values": [
      {"measurement": "Ratio (460 nm/535 nm)", "setting": "[1]", "result": "0.407 ± 0.041"},
      {"measurement": "% total (TG 1 μM)", "setting": "[1]; CPA 10 μM", "result": 59, "unit": "%"}
    ]},
    {"molecule": "C[S+](C)[O-]", "note": "[DMSO, dimethyl sulfoxide]", "values": [
      {"measurement": "Interference with the assay", "setting": "[1]; 0.5% final concentration", "result": "did not hinder the assay"},
      {"measurement": "Effect on β-lactamase synthesis when added after TG activation", "setting": "[1]; added 3 hrs after TG activation", "result": "did not block β-lactamase synthesis"},
      {"measurement": "Effect on constitutive β-lactamase synthesis", "setting": "[2]", "result": "no effect"},
      {"measurement": "Effect on the Icrac channel, [Ca++]i determination", "setting": "Icrac channel", "result": "no effect"},
      {"measurement": "F.U. at 535 nm, % control", "setting": "[3]; DMSO 0.1%", "result": 99.2, "unit": "%"},
      {"measurement": "F.U. at 535 nm, % control", "setting": "[3]; DMSO 1%", "result": 96.1, "unit": "%"},
      {"measurement": "F.U. at 535 nm, % control", "setting": "[3]; DMSO 2%", "result": 97, "unit": "%"},
      {"measurement": "F.U. at 535 nm, % control", "setting": "[3]; DMSO 4%", "result": 107.7, "unit": "%"},
      {"measurement": "F.U. at 535 nm, % control", "setting": "[3]; DMSO 5%", "result": 110.1, "unit": "%"}
    ]},
    {"molecule": "COc1ccc([C@@H]2Sc3ccccc3N(CCN(C)C)C(=O)[C@@H]2OC(C)=O)cc1", "note": "[Diltiazem]", "values": [
      {"measurement": "Effect on β-lactamase synthesis at 10 μM", "setting": "[1]", "result": "did not have any effect"},
      {"measurement": "Toxic effects (weak loading)", "setting": "[3]", "result": "Toxic effects were detected"}
    ]},
    {"molecule": "C=C1[C@@H](O)[C@@H]2O[C@]3(CC[C@H](/C=C/[C@@H](C)[C@@H]4CC(C)=C[C@@]5(O[C@H](C[C@@](C)(O)C(=O)O)CC[C@H]5O)O4)O3)CC[C@H]2O[C@@H]1[C@@H](O)C[C@H](C)[C@H]1O[C@@]2(CCCCO2)CC[C@H]1C", "note": "[Okadaic acid, okadaic acid]", "values": [
      {"measurement": "Effect on TG-driven β-lactamase synthesis / NFAT activation", "setting": "[1]", "result": "blocked the β-lactamase synthesis"},
      {"measurement": "Effect on β-lactamase synthesis", "setting": "[4]", "result": "blocked the β-lactamase synthesis"}
    ]},
    {"molecule": "CCCCCCCCCCCCCC(=O)O[C@@H]1[C@@H](C)[C@@]2(O)[C@@H](C=C(CO)C[C@]3(O)C(=O)C(C)=C[C@@H]23)[C@@H]2C(C)(C)[C@]12OC(C)=O", "note": "[PMA, phorbol myristate acetate]", "values": [
      {"measurement": "Ratio (460 nm/535 nm)", "setting": "[1]", "result": "0.012 ± 0.008"},
      {"measurement": "% total (TG 1 μM)", "setting": "[1]; PMA 10 nM", "result": 2, "unit": "%"}
    ]},
    {"molecule": "C/C=C(/C)C(=O)O[C@H]1C(C)=C2[C@H]([C@@H]1OC(=O)CCCCCCC)[C@@](C)(OC(C)=O)C[C@H](OC(=O)CCC)[C@@]1(O)[C@H]2OC(=O)[C@@]1(C)O", "note": "[TG, thapsigargin]", "values": [
      {"measurement": "β-lactamase synthesis versus TG concentration", "setting": "[1]; 5-10 μM TG", "result": "decrease was observed"},
      {"measurement": "% total (TG 1 μM)", "setting": "[1]; TG 1 μM", "result": 100, "unit": "%"},
      {"measurement": "Ratio (460 nm/535 nm)", "setting": "[1]; TG 1 μM", "result": "0.688 ± 0.035"},
      {"measurement": "Relative potency as Icrac activator (in words)", "setting": "[1]; Table 1", "result": "most active Icrac activator"},
      {"measurement": "β-lactamase synthesis versus TG concentration", "setting": "[1]; concentrations higher than 1 μM (FIG. 2C)", "result": "did not further increase the β-lactamase synthesis"},
      {"measurement": "β-lactamase activity with thapsigargin alone", "setting": "[1]; conventional conditions, 0.4 mM [Ca++] (FIG. 2B)", "result": "weak"}
    ]},
    {"molecule": "C[C@]1(Cn2ccnn2)[C@H](C(=O)O)N2C(=O)C[C@H]2S1(=O)=O", "note": "[Tazobactam]", "values": [
      {"measurement": "IC50", "setting": "[1]; Homo sapiens, Jurkat, NFAT-driven (FIG. 4), read-out: IC50, block of NFAT-driven β-lactamase", "result": 2000, "unit": "nM"},
      {"measurement": "Ki", "setting": "β-lactamase", "result": 700, "unit": "nM"}
    ]},
    {"molecule": "COc1ccc(CCN(C)CCCC(C#N)(c2ccc(OC)c(OC)c2)C(C)C)cc1OC", "note": "(stereo not drawn) [Verapamil]", "values": [
      {"measurement": "Effect on β-lactamase synthesis at 10 μM", "setting": "[1]", "result": "did not have any effect"},
      {"measurement": "Toxic effects (weak loading)", "setting": "[3]", "result": "Toxic effects were detected"}
    ]},
    {"molecule": "calyculin", "values": [
      {"measurement": "Effect on TG-driven β-lactamase synthesis / NFAT activation", "setting": "[1]", "result": "blocked the NFAT activation in a dose dependent manner"}
    ]},
    {"molecule": "phytohemaggutinin [PHA]", "values": [
      {"measurement": "% total (TG 1 μM)", "setting": "[1]; PHA 1 μg/ml", "result": 41, "unit": "%"},
      {"measurement": "Ratio (460 nm/535 nm)", "setting": "[1]; PHA 1 μg/ml", "result": "0.280 ± 0.116"},
      {"measurement": "% total (TG 1 μM)", "setting": "[1]; PHA 10 μg/ml", "result": 84, "unit": "%"},
      {"measurement": "Ratio (460 nm/535 nm)", "setting": "[1]; PHA 10 μg/ml", "result": "0.578 ± 0.040"}
    ]}
  ]
}
